Source: patent US10821117B2, “Estrogen therapy for brain gray matter atrophy and associated disability” (The Regents of the University of California, priority 2014, dated 2020)

Experiments:
[1] = system: relapsing remitting multiple sclerosis patients; experiment: Voxel-based morphometry (VBM) of gray matter loss; format: in vivo, human; conditions: at 12 months; FDR P≤0.05; FIG. 9
Experimental: Voxel-based morphometry (VBM) analyses were performed as described by Kurth et al. (Neuroimage Clin. 4:454 (2014)). All subjects included in the VBM cohort were required to have at least reached month 12 of the study, and all images had to pass quality control before and after image preprocessing to be included in the VBM cohort. Using this criteria, the VBM cohort consisted of Ill subjects (62 in the estriol+GA, and 49 in the placebo+GA group) from 13 sites for month 12 analyses, and 86 of these subjects (45 in the estriol+GA, and 41 in the placebo+GA group) for 24 month analyses.
Brain images were preprocessed utilizing SPM8 and the VBM8 toolbox. White matter lesions were in-painted to minimize their impact based on manual delineations that were used for the analysis of new T2 lesions. […]
For the statistical analysis, a general linear model was applied that used the smoothed gray matter segments as the dependent and group x time as the independent variable. […] Applying this model, the interaction between group and time was calculated using T-tests to investigate group differences in local gray matter changes between month 0 and month 12 (month 0 and month 24, respectively). […]

[2] = system: relapsing remitting multiple sclerosis patients; experiment: 7/24 Spatial Recall Test, proportion with perfect score; format: in vivo, human
Experimental: The estriol and placebo subjects were administered the 7/24 Spatial Recall Test periodically throughout the study. A perfect score on the test is 7, and for both treatment groups, the median score was also 7. Therefore, performance was assessed by the proportion of subjects in each group who achieved a perfect score on the test. […] Logistic regression for repeated measurement was used to compare the probability having a perfect score between the two treatment groups, adjusting for age, education level, and baseline recall (Table 7).

glatiramer acetate [Placebo + GA]
voxel-wise gray matter loss as compared to baseline [1]: significant localized gray matter loss
voxel-wise gray matter loss, between group comparison [1]: significantly more gray matter loss
Percentage of subjects achieving a perfect score on the 7/24 Spatial Recall Test ([2]; Month 3): 60.8 (45/74) %
Percentage of subjects achieving a perfect score on the 7/24 Spatial Recall Test ([2]; Month 6): 73.2 (52/71) %
Percentage of subjects achieving a perfect score on the 7/24 Spatial Recall Test ([2]; Month 12): 71.4 (45/63) %
Percentage of subjects achieving a perfect score on the 7/24 Spatial Recall Test ([2]; Month 18): 63.6 (35/55) %
Percentage of subjects achieving a perfect score on the 7/24 Spatial Recall Test ([2]; Month 24): 75.0 (42/56) %
7/24 Spatial Recall Test, Estimated perfect score rate (95% CI) ([2]; logistic regression for repeated measurement, adjusted for age, education level, baseline recall): 69.8 (63.4, 75.5) %
